Results from ChEMBL document CHEMBL1201862, “PubChem BioAssay data set” (2004).
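All cell lines were grown in 96-well plates and treated with compound for 48 hours. The concentration for 50% growth inhibition is given as GI50.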 Activity calls are given as the source filed them. Rule as the data show it: active = GI50 up to about 1.1 µM and inactive = higher.

Experiments:
Test in all cases: growth of human tumour cells (NCI), 48 h
786-0 = system: 786-0
A498 = system: A498
ACHN = system: ACHN
BT-549 = system: BT-549
CAKI-1 = system: CAKI-1
CCRF-CEM = system: CCRF-CEM
COLO 205 = system: COLO 205
DU-145 = system: DU-145
EKVX = system: EKVX
HCC 2998 = system: HCC 2998
HCT-116 = system: HCT-116
HCT-15 = system: HCT-15
HL-60 = system: HL-60
HOP-62 = system: HOP-62
HOP-92 = system: HOP-92
HT-29 = system: HT-29
Hs-578T = system: Hs-578T
IGROV-1 = system: IGROV-1
K562 = system: K562
KM12 = system: KM12
LOX IMVI = system: LOX IMVI
M14 = system: M14
MCF7 = system: MCF7
MDA-MB-231 = system: MDA-MB-231
MDA-MB-435 = system: MDA-MB-435
MDA-N = system: MDA-N
MOLT-4 = system: MOLT-4
Malme-3M = system: Malme-3M
NCI-H226 = system: NCI-H226
NCI-H23 = system: NCI-H23
NCI-H460 = system: NCI-H460
NCI-H522 = system: NCI-H522
NCI/ADR-RES = system: NCI/ADR-RES
OVCAR-3 = system: OVCAR-3
OVCAR-4 = system: OVCAR-4
OVCAR-5 = system: OVCAR-5
OVCAR-8 = system: OVCAR-8
PC-3 = system: PC-3
RPMI-8226 = system: RPMI-8226
RXF 393 = system: RXF 393
SF-268 = system: SF-268
SF-295 = system: SF-295
SF-539 = system: SF-539
SK-MEL-28 = system: SK-MEL-28
SK-MEL-2 = system: SK-MEL-2
SK-MEL-5 = system: SK-MEL-5
SK-OV-3 = system: SK-OV-3
SN12C = system: SN12C
SNB-19 = system: SNB-19
SNB-75 = system: SNB-75
SR = system: SR
SW-620 = system: SW-620
T47D = system: T47D
TK-10 = system: TK-10
U-251 = system: U-251
UACC-257 = system: UACC-257
UACC-62 = system: UACC-62
UO-31 = system: UO-31

Measured: GI50

C#CC1NC(=O)C1N(CC)CC (stereo not drawn)
> 100 µM: HCT-15
inactive: 786-0 > 100 µM | A498 > 100 µM | ACHN > 100 µM | BT-549 > 100 µM | CAKI-1 86.5 µM | CCRF-CEM > 100 µM | COLO 205 > 100 µM | DU-145 > 100 µM | EKVX > 100 µM | HCC 2998 > 100 µM | HCT-116 > 100 µM | HL-60 > 100 µM | HOP-62 > 100 µM | HOP-92 > 100 µM | HT-29 > 100 µM | Hs-578T > 100 µM | IGROV-1 > 100 µM | K562 > 100 µM | KM12 > 100 µM | LOX IMVI > 100 µM | M14 > 100 µM | MCF7 > 100 µM | MDA-MB-231 > 100 µM | MDA-MB-435 > 100 µM | MDA-N > 100 µM | MOLT-4 > 100 µM | Malme-3M > 100 µM | NCI-H226 > 100 µM | NCI-H23 > 100 µM | NCI-H460 > 100 µM | NCI-H522 > 100 µM | NCI/ADR-RES > 100 µM | OVCAR-3 > 100 µM | OVCAR-4 > 100 µM | OVCAR-5 > 100 µM | OVCAR-8 > 100 µM | PC-3 > 100 µM | RPMI-8226 > 100 µM | RXF 393 > 100 µM | SF-268 > 100 µM | SF-295 > 100 µM | SF-539 > 100 µM | SK-MEL-28 > 100 µM | SK-MEL-2 > 100 µM | SK-MEL-5 > 100 µM | SK-OV-3 > 100 µM | SN12C > 100 µM | SNB-19 > 100 µM | SNB-75 14.6 µM | SR > 100 µM | SW-620 > 100 µM | T47D > 100 µM | TK-10 > 100 µM | U-251 > 100 µM | UACC-257 > 100 µM | UACC-62 > 100 µM | UO-31 > 100 µM
